Measured values taken from US7226923B2, “Phthalazinone derivatives” (Hoffman-La Roche Inc., priority 2004, dated 2007).

Experiments:
Aurora A = molecular target: T1, Aurora A (Homo sapiens, UniProt O14965); assay: IC50 determination for inhibitors of Aurora A (96 MTP-ELISA); assay type: biochemical; details: His4-tagged full-length Aurora A 250 ng/ml, PKB-GSK2 200 nM, ATP 4 μM, 90 min at room temperature, read-out: IC50 Aurora A kinase inhibition
T1 construct: C-terminally Histidine4 (His4)-tagged Aurora A full-length protein
T1 sequence (O14965 1-403): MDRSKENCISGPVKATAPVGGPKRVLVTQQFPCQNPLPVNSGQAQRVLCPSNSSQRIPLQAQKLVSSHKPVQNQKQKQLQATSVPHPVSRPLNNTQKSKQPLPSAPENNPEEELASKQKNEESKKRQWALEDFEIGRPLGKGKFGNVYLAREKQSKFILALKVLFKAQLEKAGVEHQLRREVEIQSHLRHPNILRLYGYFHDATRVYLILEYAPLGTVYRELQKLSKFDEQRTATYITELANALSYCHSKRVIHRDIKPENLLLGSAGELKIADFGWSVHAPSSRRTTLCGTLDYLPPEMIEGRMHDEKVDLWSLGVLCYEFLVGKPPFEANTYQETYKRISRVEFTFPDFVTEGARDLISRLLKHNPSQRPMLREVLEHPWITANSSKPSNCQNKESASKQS
Experimental: IC50 Determination for Inhibitors of Aurora A
• Aurora A is a serine threonine kinase involved in spindle assembly and chromosome segregation.
The assay is a typically ELISA-type assay where biotinylated substrate (PKB-GSK2) is phosphorylated. Phosphorylation is detected by peroxidase (POD) labelled polyclonal antibody (PAK<M-Ig>S-IgG-POD) and phosphopeptide monoclonal antibody (Mab) (MAK<P-GSK>M-27E5-IgG). The assay is validated for IC50-determination.
Method • This assay is performed in 96-well format for IC50 determination with 5 samples (each with 8 concentrations by twofold testing), 100 μl incubation volume and the following plate layout: […]

HCT 116 cells = assay: CellTiter-Glo assay in HCT 116 cells; assay type: cell-based, human; details: Homo sapiens, HCT-116, 120 h, 5 days incubation, 30 μM to 0.0015 μM
Excerpt: CellTiter-Glo™ Assay in HCT 116 Cells
The CellTiter-Glo™ Luminescent Cell Viability Assay (Promega) is a homogeneous method of determining the number of viable cells in culture based on quantitation of the ATP present, which signals the presence of metabolically active cells.
HCT 116 cells (human colon carcinoma, ATCC-No. CCl-247) were cultivated in RPMI 1640 medium with GlutaMAX™ I (Invitrogen, Cat-No. 61870-010), 2.5% Fetal Calf Serum (FCS, Sigma Cat-No. F4135 (FBS)); 100 Units/ml penicillin/100 μg/ml streptomycin (=Pen/Strep from Invitrogen Cat. No. 15140). For the assay the cells were seeded in 384 well plates, 1000 cells per well, in the same medium. The next day the test compounds were added in various concentrations ranging from 30 μM to 0.0015 μM (10 concentrations, 1:3 diluted). After 5 days the CellTiter-Glo™ assay was done according to the instructions of the manufacturer (CellTiter-Glo™ Luminescent Cell Viability Assay, from Promega). In brief: the cell-plate was equilibrated to room temperature for approximately 30 minutes and than the CellTiter-Glo™ reagent was added. The contents were carefully mixed for 15 minutes to induce cell lysis. After 45 minutes the luminescent signal was measured in Victor 2, (scanning multiwell spectrophotometer, Wallac).
1st. Day: • Medium: RPMI 1640 with GlutaMAX™ I (Invitrogen, Cat-Nr. 61870), 5% FCS (Sigma Cat.-No. F4135), Pen/Strep (Invitrogen, Cat No. 15140). • HCT116 (ATCC-No. CCl-247): 1000 cells in 60 μl per well of 384 well plate (Greiner 781098, μClear-plate white) • After seeding incubate plates 24 h at 37° C., 5% CO2
2nd. Day: Induction (Treatment with Compounds, 10 Concentrations):
In order to achieve a final concentration of 30 μM as highest concentration 3.5 μl of 10 mM compound stock solution were added directly to 163 μl media. Then step e) of the dilution procedure described below, was followed.

| Structure (SMILES) | IC50 (Aurora A) [nM] | IC50 (HCT 116 cells) [nM] |
| --- | --- | --- |
| Cc1cc(Nc2nn(CC(F)(F)F)c(=O)c3ccccc23)n[nH]1 [Example A-5, 4-(5-Methyl-1H-pyrazol-3-ylamino)-2-(2,2,2-trifluoro-ethyl)-2H-phthalazin-1-one] | 1 to 100 | 100 to 10000 |
| Cc1cc(Nc2nn(Cc3ccccc3)c(=O)c3ccccc23)n[nH]1 [Example A-2, 2-Benzyl-4-(5-methyl-1H-pyrazol-3-ylamino)-2H-phthalazin-1-one] | 65 | 100 to 10000 |
| Cc1cc(Nc2nn(C(C)C)c(=O)c3c(N4CCOCC4)cccc23)n[nH]1 [Example F-3, 2-Isopropyl-4-(5-methyl-1H-pyrazol-3-ylamino)-8-morpholino-2H-phthalazin-1-one] | 1 to 100 | 100 to 10000 |
| Cc1cc(Nc2nn(C(C)C)c(=O)c3c(N(C)C)cccc23)n[nH]1 [Example F-8, 2-Isopropyl-4-(5-methyl-1H-pyrazol-3-ylamino)-8-dimethylamino-2H-phthalazin-1-one] | 1 to 100 | 420 |
| Cc1cc(Nc2nn(C(C)C)c(=O)c3cc(N4CCOCC4)ccc23)n[nH]1 [Example F-1, 2-Isopropyl-4-(5-methyl-1H-pyrazol-3-ylamino)-7-morpholino-2H-phthalazin-1-one] | 1 to 100 | 100 to 10000 |
| Cc1cc(Nc2nn(-c3ccc(C(F)(F)F)cc3)c(=O)c3ccccc23)n[nH]1 [Example A-25, 4-(5-Methyl-1H-pyrazol-3-ylamino)-2-(4-trifluoromethyl-phenyl)-2H-phthalazin-1-one] | 1 to 100 | 100 to 10000 |
| Cc1cc(Nc2nn(Cc3ccc(N)cc3)c(=O)c3ccccc23)n[nH]1 [Example C-1, 2-(4-Aminobenzyl)-4-(5-methyl-1H-pyrazol-3-ylamino)-2H-phthalazin-1-one] | 1 to 100 | 100 to 10000 |
| Cc1cc(Nc2nn(CC(=O)c3ccc(OC(F)(F)F)cc3)c(=O)c3ccccc23)n[nH]1 [Example E-6, 4-(5-Methyl-1H-pyrazol-3-ylamino)-2-[2-oxo-2-(4-trifluoromethoxy-phenyl)-ethyl]-2H-phthalazin-1-one] | 100 to 1000 | 10000 to 100000 |
| Cc1cc(Nc2nn(Cc3ccc(F)cc3)c(=O)c3ccccc23)n[nH]1 [Example A-20, 2-(4-Fluoro-benzyl)-4-(5-methyl-1H-pyrazol-3-ylamino)-2H-phthalazin-1-one] | 1 to 100 | 100 to 10000 |
| Cc1cc(Nc2nn(C(C)C)c(=O)c3cc(N4CCN(C)CC4)ccc23)[nH]n1 [Example F-5, 2-Isopropyl-7-(4-methyl-piperazin-1-yl)-4-(5-methyl-2H-pyrazol-3-ylamino)-2H-phthalazin-1-one] | 1 to 100 | 100 to 10000 |
| Cc1cc(Nc2nn(CC(=O)c3ccccc3)c(=O)c3ccccc23)n[nH]1 [Example E-9, 4-(5-Methyl-1H-pyrazol-3-ylamino)-2-(2-oxo-2-phenyl-ethyl)-2H-phthalazin-1-one] | 1 to 100 | 100 to 10000 |
| Cc1cc(Nc2nn(Cc3ccc([N+](=O)[O-])cc3)c(=O)c3ccccc23)n[nH]1 [Example B-3, 4-(5-Methyl-1H-pyrazol-3-ylamino)-2-(4-nitro-benzyl)-2H-phthalazin-1-one] | 100 to 1000 | 100 to 10000 |

Further lines, results first:

| IC50 (Aurora A) [nM] | IC50 (HCT 116 cells) [nM] | Structure (SMILES) |
| --- | --- | --- |
| 1 to 100 | 100 to 10000 | CNC(=O)Nc1ccc2c(Nc3cc(C)[nH]n3)nn(C(C)C)c(=O)c2c1 [Example I-13, 1-[3-Isopropyl-1-(5-methyl-1H-pyrazol-3-ylamino)-4-oxo-3,4-dihydro-phthalazin-6-yl]-3-methyl-urea] |
| 1 to 100 | 100 to 10000 | Cc1cc(Nc2nn(C(C)C)c(=O)c3cc(N(C)Cc4ccccn4)ccc23)n[nH]1 [Example I-4, 2-Isopropyl-4-(5-methyl-1H-pyrazol-3-ylamino)-7-(methyl-pyridin-2-ylmethyl-amino)-2H-phthalazin-1-one] |
| 1 to 100 | 100 to 10000 | Cc1cc(Nc2nn(C(C)C)c(=O)c3cc(N(C)Cc4cccnc4)ccc23)n[nH]1 [Example I-3, 2-Isopropyl-4-(5-methyl-1H-pyrazol-3-ylamino)-7-(methyl-pyridin-3-ylmethyl-amino)-2H-phthalazin-1-one] |
| 1 to 100 | 100 to 10000 | Cc1cc(Nc2nn(-c3ccc(C(C)C)cc3)c(=O)c3ccccc23)[nH]n1 [Example P-1, 2-(4-Isopropyl-phenyl)-4-(5-methyl-2H-pyrazol-3-ylamino)-2H-phthalazin-1-one] |
| 100 to 1000 | 100 to 10000 | Cc1cc(Nc2nn(C(C)C)c(=O)c3ccc(CO)cc23)n[nH]1 [Example M-10, 6-Hydroxymethyl-2-isopropyl-4-(5-methyl-1H-pyrazol-3-ylamino)-2H-phthalazin-1-one] |
| 1 to 100 | 10000 to 100000 | CCC(C)c1ccc(-n2nc(Nc3cc(C)n[nH]3)c3ccccc3c2=O)cc1 (stereo not drawn) [Example P-2, 2-(4-sec-Butyl-phenyl)-4-(5-methyl-2H-pyrazol-3-ylamino)-2H-phthalazin-1-one] |
| 100 to 1000 | 100 to 10000 | Cc1cc(Nc2nn(-c3ccccc3)c(=O)c3ccc(N)cc23)n[nH]1 [Example Z-1, 6-Amino-4-(5-methyl-1H-pyrazol-3-ylamino)-2-phenyl-2H-phthalazin-1-one] |
| 1 to 100 | 100 to 10000 | CCN(CC)C(=O)c1ccc2c(Nc3cc(C)[nH]n3)nn(C(C)C)c(=O)c2c1 [Example M-3, 3-Isopropyl-1-(5-methyl-1H-pyrazol-3-ylamino)-4-oxo-3,4-dihydro-phthalazine-6-carboxylic acid diethylamide] |
| 1 to 100 | 100 to 10000 | Cc1cc(Nc2nn(-c3ccc(N4CCOCC4)cc3)c(=O)c3ccccc23)n[nH]1 [Example U-2, 4-(5-Methyl-1H-pyrazol-3-ylamino)-2-(4-morpholin-4-yl-phenyl)-2H-phthalazin-1-one] |
| 1 to 100 | 100 to 10000 | Cc1cc(Nc2nn(-c3ccccc3Cl)c(=O)c3ccccc23)n[nH]1 [Example R-4, 2-(2-Chloro-phenyl)-4-(5-methyl-1H-pyrazol-3-ylamino)-2H-phthalazin-1-one] |
| 1 to 100 | 100 to 10000 | Cc1cc(Nc2nn(-c3ccc(OC(F)(F)F)cc3)c(=O)c3ccccc23)n[nH]1 [Example W-2, 4-(5-Methyl-1H-pyrazol-3-ylamino)-2-(4-trifluoromethoxy-phenyl)-2H-phthalazin-1-one] |
| 1 to 100 | 100 to 10000 | Cc1cc(Nc2nn(C(C)C)c(=O)c3cc(N(C)CCN4CCOCC4)ccc23)n[nH]1 [Example I-1, 2-Isopropyl-7-[methyl-(2-morpholin-4-yl-ethyl)-amino]-4-(5-methyl-1H-pyrazol-3-ylamino)-2H-phthalazin-1-one] |
| 1 to 100 | 100 to 10000 | Cc1cc(Nc2nn(-c3cccc(C(F)(F)F)c3)c(=O)c3ccccc23)n[nH]1 [Example R-1, 4-(5-Methyl-1H-pyrazol-3-ylamino)-2-(3-trifluoromethyl-phenyl)-2H-phthalazin-1-one] |
| 1 to 100 | 100 to 10000 | Cc1cc(Nc2nn(-c3ccc(S(=O)(=O)C(C)(C)C)cc3)c(=O)c3ccccc23)n[nH]1 [Example ZA-1, 2-[4-(2-Methyl-propane-2-sulfonyl)-phenyl]-4-(5-methyl-1H-pyrazol-3-ylamino)-2H-phthalazin-1-one] |
| 1 to 100 | 10000 to 100000 | CC(=O)N1CCN(C(=O)c2ccc3c(Nc4cc(C)[nH]n4)nn(C(C)C)c(=O)c3c2)CC1 [Example M-7, 7-(4-Acetyl-piperazine-1-carbonyl)-2-isopropyl-4-(5-methyl-1H-pyrazol-3-ylamino)-2H-phthalazin-1-one] |
